Test results reported in ChEMBL document CHEMBL1126625, “7-Azetidinylquinolones as antibacterial agents. Synthesis and structure-activity relationships” (J Med Chem, 1993).
Values after ≈ are worked out from the molar mass of the structure shown.

Experiments:
Assay type in all cases: functional
[1] = system: Bacillus subtilis; test: Minimum inhibitory concentration (MIC) preventing growth of Bacillus subtilis
[2] = system: Escherichia coli; test: Minimum inhibitory concentration (MIC)preventing growth of Escherichia coli
[3] = system: Enterococcus faecalis; test: Minimum inhibitory concentration (MIC) preventing growth of Streptococcus faecalis ATCC 10541
[4] = system: Staphylococcus epidermidis; test: Minimum inhibitory concentration (MIC) preventing growth of Staphylococcus epidermidis
[5] = system: Pseudomonas aeruginosa; test: Minimum inhibitory concentration (MIC)preventing growth of Pseudomonas aeruginosa
[6] = system: Enterobacter cloacae; test: Minimum inhibitory concentration (MIC)preventing growth of Enterobacter cloacae
[7] = system: Klebsiella pneumoniae; test: Minimum inhibitory concentration (MIC)preventing growth of Klebsiella pneumoniae
[8] = system: Staphylococcus aureus; test: Minimum inhibitory concentration (MIC) preventing growth of […]
[9] = system: Bacillus cereus; test: Minimum inhibitory concentration (MIC) preventing growth of Bacillus cereus
[10] = system: Morganella morganii; test: Minimum inhibitory concentration (MIC) preventing growth of Morganella morganii
[11] = system: Proteus vulgaris; test: Minimum inhibitory concentration (MIC) preventing growth of Proteus vulgaris

| Compound | MIC [1] [µg/mL] | MIC [2] [µg/mL] | MIC [3] [µg/mL] | MIC [4] [µg/mL] | MIC [5] [µg/mL] | MIC [6] [µg/mL] | MIC [7] [µg/mL] | MIC [8] [µg/mL] | MIC [9] [µg/mL] | MIC [10] [µg/mL] | MIC [11] [µg/mL] |
| --- | --- | --- | --- | --- | --- | --- | --- | --- | --- | --- | --- |
| O=C(O)c1cn(C2CC2)c2c(F)c(N3CC(C(=O)O)C3)c(F)cc2c1=O | > 16 | > 16 | > 16 | > 16 | > 16 | > 16 | > 16 | > 16 | > 16 | > 16 | > 16 |
| CNC1CN(c2cc3c(cc2F)c(=O)c2c(=O)[nH]sc2n3C2CC2)C1 | 0.03 (≈ 0.0832 µM) | 0.03 (≈ 0.0832 µM) | 0.25 (≈ 0.694 µM) | 0.12 (≈ 0.333 µM) | 0.5 (≈ 1.39 µM) | 0.12 (≈ 0.333 µM) | 0.12 (≈ 0.333 µM) | 0.12 (≈ 0.333 µM) | 0.12 (≈ 0.333 µM) | 0.06 (≈ 0.166 µM) | 0.12 (≈ 0.333 µM) |
| CC1(N)CN(c2c(F)cc3c(=O)c(C(=O)O)cn(-c4ccc(F)cc4F)c3c2F)C1 | 0.25 (≈ 0.593 µM) | 0.25 (≈ 0.593 µM) | 0.25 (≈ 0.593 µM) | 0.5 (≈ 1.19 µM) | 2 (≈ 4.75 µM) | 0.25 (≈ 0.593 µM) | 0.5 (≈ 1.19 µM) | 0.25 (≈ 0.593 µM) | 0.5 (≈ 1.19 µM) | 0.5 (≈ 1.19 µM) | 0.5 (≈ 1.19 µM) |
| O=C(O)c1cn(C2CC2)c2cc(N3CCC3)c(F)cc2c1=O | 0.015 (≈ 0.0496 µM) | 0.12 (≈ 0.397 µM) | 2 (≈ 6.62 µM) | 0.06 (≈ 0.198 µM) | 2 (≈ 6.62 µM) | 0.12 (≈ 0.397 µM) | 0.015 (≈ 0.0496 µM) | 0.06 (≈ 0.198 µM) | 0.06 (≈ 0.198 µM) | 0.25 (≈ 0.827 µM) | 0.06 (≈ 0.198 µM) |
| CCC1(O)CN(c2c(F)cc3c(=O)c(C(=O)O)cn(C4CC4)c3c2F)C1 | 0.06 (≈ 0.165 µM) | 0.25 (≈ 0.686 µM) | 1 (≈ 2.74 µM) | 0.25 (≈ 0.686 µM) | 2 (≈ 5.49 µM) | 0.5 (≈ 1.37 µM) | 0.12 (≈ 0.329 µM) | 0.5 (≈ 1.37 µM) | 0.5 (≈ 1.37 µM) | 0.5 (≈ 1.37 µM) | 0.25 (≈ 0.686 µM) |
| Nc1c(F)c(N2CC(O)C2)c(F)c2c1c(=O)c(C(=O)O)cn2C1CC1 | 0.015 (≈ 0.0427 µM) | 0.06 (≈ 0.171 µM) | 2 (≈ 5.69 µM) | 0.06 (≈ 0.171 µM) | 2 (≈ 5.69 µM) | 0.12 (≈ 0.342 µM) | 0.015 (≈ 0.0427 µM) | 0.06 (≈ 0.171 µM) | 0.015 (≈ 0.0427 µM) | 0.12 (≈ 0.342 µM) | 0.12 (≈ 0.342 µM) |
| O=C(O)c1cn(C2CC2)c2c(F)c(N3CC(N4CCCC4)C3)c(F)cc2c1=O | 0.06 (≈ 0.154 µM) | 0.06 (≈ 0.154 µM) | 0.5 (≈ 1.28 µM) | 0.12 (≈ 0.308 µM) | 2 (≈ 5.14 µM) | 0.06 (≈ 0.154 µM) | 0.12 (≈ 0.308 µM) | 0.12 (≈ 0.308 µM) | 0.12 (≈ 0.308 µM) | 0.12 (≈ 0.308 µM) | 0.25 (≈ 0.642 µM) |

Continued by falling MIC [1], values first:

| MIC [1] [µg/mL] | MIC [2] [µg/mL] | MIC [3] [µg/mL] | MIC [4] [µg/mL] | MIC [5] [µg/mL] | MIC [6] [µg/mL] | MIC [7] [µg/mL] | MIC [8] [µg/mL] | MIC [9] [µg/mL] | MIC [10] [µg/mL] | MIC [11] [µg/mL] | Compound |
| --- | --- | --- | --- | --- | --- | --- | --- | --- | --- | --- | --- |
| 0.25 (≈ 0.741 µM) | 0.5 (≈ 1.48 µM) | 2 (≈ 5.93 µM) | 1 (≈ 2.96 µM) | 4 (≈ 11.9 µM) | 1 (≈ 2.96 µM) | 0.5 (≈ 1.48 µM) | 1 (≈ 2.96 µM) | 1 (≈ 2.96 µM) | 0.5 (≈ 1.48 µM) | 1 (≈ 2.96 µM) | CC1(N)CN(c2cc3c(cc2F)c(=O)c(C(=O)O)cn3CCF)C1 |
| 0.12 (≈ 0.355 µM) | 0.06 (≈ 0.177 µM) | 2 (≈ 5.91 µM) | 0.5 (≈ 1.48 µM) | 2 (≈ 5.91 µM) | 0.12 (≈ 0.355 µM) | 0.06 (≈ 0.177 µM) | 0.5 (≈ 1.48 µM) | 0.5 (≈ 1.48 µM) | 0.12 (≈ 0.355 µM) | 1 (≈ 2.96 µM) | CC1(N)CN(c2nc3c(cc2F)c(=O)c(C(=O)O)cn3CCF)C1 |
| 0.12 (≈ 0.307 µM) | 0.25 (≈ 0.639 µM) | 1 (≈ 2.55 µM) | 0.25 (≈ 0.639 µM) | 2 (≈ 5.11 µM) | 0.25 (≈ 0.639 µM) | 0.25 (≈ 0.639 µM) | 0.25 (≈ 0.639 µM) | 0.25 (≈ 0.639 µM) | 0.25 (≈ 0.639 µM) | 0.25 (≈ 0.639 µM) | CCNCC1(C)CN(c2c(F)cc3c(=O)c(C(=O)O)cn(C4CC4)c3c2F)C1 |
| 0.06 (≈ 0.174 µM) | 0.12 (≈ 0.347 µM) | 0.5 (≈ 1.45 µM) | 0.25 (≈ 0.724 µM) | 1 (≈ 2.9 µM) | 0.25 (≈ 0.724 µM) | 0.25 (≈ 0.724 µM) | 0.25 (≈ 0.724 µM) | 0.12 (≈ 0.347 µM) | 0.12 (≈ 0.347 µM) | 0.12 (≈ 0.347 µM) | CC1(CN)CN(c2cc3c(cc2F)c(=O)c(C(=O)O)cn3C2CC2)C1 |
| 0.03 (≈ 0.0801 µM) | 0.03 (≈ 0.0801 µM) | 0.5 (≈ 1.34 µM) | 0.06 (≈ 0.16 µM) | 1 (≈ 2.67 µM) | 0.06 (≈ 0.16 µM) | 0.06 (≈ 0.16 µM) | 0.06 (≈ 0.16 µM) | 0.12 (≈ 0.32 µM) | 0.06 (≈ 0.16 µM) | 0.06 (≈ 0.16 µM) | CN(C)C1CN(c2cc3c(cc2F)c(=O)c2c(=O)[nH]sc2n3C2CC2)C1 |
| 0.03 (≈ 0.0801 µM) | 0.03 (≈ 0.0801 µM) | 0.06 (≈ 0.16 µM) | 0.06 (≈ 0.16 µM) | 0.5 (≈ 1.34 µM) | 0.06 (≈ 0.16 µM) | 0.03 (≈ 0.0801 µM) | 0.06 (≈ 0.16 µM) | 0.06 (≈ 0.16 µM) | 0.06 (≈ 0.16 µM) | 0.12 (≈ 0.32 µM) | CNC1(C)CN(c2cc3c(cc2F)c(=O)c2c(=O)[nH]sc2n3C2CC2)C1 |
| 0.015 (≈ 0.0376 µM) | 1 (≈ 2.5 µM) | 2 (≈ 5.01 µM) | 0.25 (≈ 0.626 µM) | 8 (≈ 20 µM) | 2 (≈ 5.01 µM) | 0.25 (≈ 0.626 µM) | 0.25 (≈ 0.626 µM) | 0.25 (≈ 0.626 µM) | 1 (≈ 2.5 µM) | 1 (≈ 2.5 µM) | CC1(n2cccc2)CN(c2c(F)cc3c(=O)c(C(=O)O)cn(C4CC4)c3c2F)C1 |
